Measurements from US6486195B1, “Thermodynamically stable crystal form of 4″-deoxy-4″-epi-methylamino avermectin B1a/B1b benzoic acid salt and processes for its preparation” (Merck & Co., Inc., priority 1993, dated 2002).

Key:
[1] = thermodynamic stability of the crystalline forms; format: physicochemical; settings: among the four crystalline forms A, B, C and D
[2] = hygroscopicity of the crystal forms; format: physicochemical; settings: compared with the other crystal forms (A, C, D)

4″-deoxy-4″-epi-methylamino avermectin B1a/B1b, benzoic acid salt, hemihydrate [Type B]
thermodynamic stability of crystalline form [1]: most thermodynamically stable | hygroscopicity [2]: significantly less hygroscopic
